Tests used:
B2 bradykinin receptor = target: T1, B2 bradykinin receptor (Homo sapiens, UniProt P30411); assay type: cell membranes, Membrane; settings: chem-1; note: in other assays of this panel Not Active means under 50% inhibition at 10 µM
T1 sequence (P30411 whole entry): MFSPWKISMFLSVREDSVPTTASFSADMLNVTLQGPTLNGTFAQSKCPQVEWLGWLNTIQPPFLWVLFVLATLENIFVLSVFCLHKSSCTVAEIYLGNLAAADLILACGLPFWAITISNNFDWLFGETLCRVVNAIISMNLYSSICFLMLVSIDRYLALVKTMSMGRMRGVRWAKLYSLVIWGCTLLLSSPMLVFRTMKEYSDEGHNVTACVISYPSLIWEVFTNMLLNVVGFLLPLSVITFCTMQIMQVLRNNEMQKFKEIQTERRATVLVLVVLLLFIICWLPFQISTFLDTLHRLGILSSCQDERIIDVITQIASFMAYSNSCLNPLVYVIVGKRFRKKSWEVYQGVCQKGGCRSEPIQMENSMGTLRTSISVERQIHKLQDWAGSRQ

[1] = DRUGMATRIX: Calcium Channel Type L, Benzothiazepine radioligand binding (ligand: [3H] Diltiazem); assay type: cell membranes, Rattus norvegicus, Wistar, Brain, Membrane; settings: Not Active = under 50% inhibition at 10 µM
[2] = target: 5-hydroxytryptamine receptor 4 (Cavia porcellus, UniProt O70528); assay type: cell membranes, Dunkin-Hartley, Striatum, Membrane; note: in other assays of this panel Not Active means under 50% inhibition at 10 µM
[3] = target: C-C chemokine receptor type 2 (Homo sapiens, UniProt P41597); assay type: cell membranes, CHO-K1, Membrane; settings: cho-k1; note: in other assays of this panel Not Active means under 50% inhibition at 10 µM
[4] = target: C-C chemokine receptor type 5 (Homo sapiens, UniProt P51681); assay type: cell membranes, Membrane; settings: hek293; note: in other assays of this panel Not Active means under 50% inhibition at 10 µM
D(1A) dopamine receptor = D(1A) dopamine receptor (Homo sapiens, UniProt P21728); assay: DRUGMATRIX: Dopamine D1 radioligand binding (ligand: [3H] SCH-23390); assay type: cell membranes, CHO, Membrane; settings: cho; Not Active = under 50% inhibition at 10 µM
[5] = target: Sodium-dependent dopamine transporter (Homo sapiens, UniProt Q01959); assay: DRUGMATRIX: Dopamine Transporter radioligand binding (ligand: [125I] RTI-55); assay type: cell membranes, CHO-K1, Membrane; settings: cho-k1; Not Active = under 50% inhibition at 10 µM
[6] = DRUGMATRIX: Glutamate, NMDA, Phencyclidine radioligand binding (ligand: [3H] TCP); assay type: cell membranes, Rattus norvegicus, Wistar, Cerebral cortex, Membrane; settings: Not Active = under 50% inhibition at 10 µM
[7] = target: T2, Muscarinic acetylcholine receptor M4 (Homo sapiens, UniProt P08173); assay type: cell membranes, CHO-K1, Membrane; settings: cho-k1; note: in other assays of this panel Not Active means under 50% inhibition at 10 µM
T2 sequence (P08173 whole entry): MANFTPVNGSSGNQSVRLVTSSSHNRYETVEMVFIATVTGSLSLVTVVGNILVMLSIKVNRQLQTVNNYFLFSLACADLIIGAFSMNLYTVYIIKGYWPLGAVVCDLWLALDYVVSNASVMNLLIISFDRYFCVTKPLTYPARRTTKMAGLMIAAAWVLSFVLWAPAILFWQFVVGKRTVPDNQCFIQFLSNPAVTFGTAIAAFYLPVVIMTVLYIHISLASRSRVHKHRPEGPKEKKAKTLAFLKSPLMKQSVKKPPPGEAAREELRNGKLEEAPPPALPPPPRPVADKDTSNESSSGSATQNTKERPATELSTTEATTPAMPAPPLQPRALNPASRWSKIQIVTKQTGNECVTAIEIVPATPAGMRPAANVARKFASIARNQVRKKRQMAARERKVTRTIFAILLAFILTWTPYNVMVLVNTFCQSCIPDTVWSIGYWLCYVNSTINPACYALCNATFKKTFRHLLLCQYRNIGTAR

[8] = target: Matrix metalloproteinase-9 (Homo sapiens, UniProt P14780); assay type: cell-based
[9] = target: T3, Receptor-type tyrosine-protein phosphatase C (Homo sapiens, UniProt P08575); parameters: species or system Escherichia coli
T3 sequence (P08575 whole entry): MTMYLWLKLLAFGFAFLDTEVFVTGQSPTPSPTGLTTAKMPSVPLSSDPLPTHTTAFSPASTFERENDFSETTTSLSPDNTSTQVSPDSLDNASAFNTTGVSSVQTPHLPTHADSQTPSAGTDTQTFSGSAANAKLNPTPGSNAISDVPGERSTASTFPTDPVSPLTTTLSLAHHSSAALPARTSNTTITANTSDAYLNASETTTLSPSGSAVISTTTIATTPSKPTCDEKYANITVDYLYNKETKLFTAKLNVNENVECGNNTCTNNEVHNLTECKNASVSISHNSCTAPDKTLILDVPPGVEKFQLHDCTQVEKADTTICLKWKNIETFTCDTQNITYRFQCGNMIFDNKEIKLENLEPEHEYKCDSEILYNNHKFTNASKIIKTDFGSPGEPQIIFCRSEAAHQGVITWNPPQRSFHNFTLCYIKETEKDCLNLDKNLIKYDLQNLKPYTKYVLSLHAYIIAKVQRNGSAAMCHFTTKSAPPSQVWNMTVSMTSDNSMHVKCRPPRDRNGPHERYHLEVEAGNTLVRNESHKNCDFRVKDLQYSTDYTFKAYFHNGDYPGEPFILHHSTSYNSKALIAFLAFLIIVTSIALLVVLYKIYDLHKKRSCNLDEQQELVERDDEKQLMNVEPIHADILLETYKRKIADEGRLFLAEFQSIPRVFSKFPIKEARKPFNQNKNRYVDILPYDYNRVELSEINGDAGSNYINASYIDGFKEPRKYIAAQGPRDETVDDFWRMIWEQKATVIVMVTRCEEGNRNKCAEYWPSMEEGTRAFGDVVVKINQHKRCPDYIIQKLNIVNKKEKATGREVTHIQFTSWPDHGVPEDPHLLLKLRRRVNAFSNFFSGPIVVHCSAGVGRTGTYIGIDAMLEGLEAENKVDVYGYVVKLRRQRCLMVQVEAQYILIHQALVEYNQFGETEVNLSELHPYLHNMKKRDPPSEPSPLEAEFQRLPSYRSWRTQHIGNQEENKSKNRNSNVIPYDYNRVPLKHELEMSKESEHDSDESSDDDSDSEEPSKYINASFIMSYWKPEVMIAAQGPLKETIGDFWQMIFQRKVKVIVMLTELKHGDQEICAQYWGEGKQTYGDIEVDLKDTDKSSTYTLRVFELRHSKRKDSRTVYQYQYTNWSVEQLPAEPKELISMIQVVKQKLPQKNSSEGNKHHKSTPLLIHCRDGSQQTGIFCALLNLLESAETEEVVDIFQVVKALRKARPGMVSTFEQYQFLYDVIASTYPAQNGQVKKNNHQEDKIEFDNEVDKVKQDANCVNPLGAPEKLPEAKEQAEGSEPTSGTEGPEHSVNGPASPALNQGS

Cytochrome P450 2E1 = Cytochrome P450 2E1 (Homo sapiens, UniProt P05181); settings: bti-tn-5b1-4; note: in other assays of this panel Not Active means under 50% inhibition at 10 µM
Estrogen receptor beta = Estrogen receptor beta (Homo sapiens, UniProt Q92731); settings: sf9; note: in other assays of this panel Not Active means under 50% inhibition at 10 µM
Sequence of Estrogen receptor beta (Q92731 whole entry): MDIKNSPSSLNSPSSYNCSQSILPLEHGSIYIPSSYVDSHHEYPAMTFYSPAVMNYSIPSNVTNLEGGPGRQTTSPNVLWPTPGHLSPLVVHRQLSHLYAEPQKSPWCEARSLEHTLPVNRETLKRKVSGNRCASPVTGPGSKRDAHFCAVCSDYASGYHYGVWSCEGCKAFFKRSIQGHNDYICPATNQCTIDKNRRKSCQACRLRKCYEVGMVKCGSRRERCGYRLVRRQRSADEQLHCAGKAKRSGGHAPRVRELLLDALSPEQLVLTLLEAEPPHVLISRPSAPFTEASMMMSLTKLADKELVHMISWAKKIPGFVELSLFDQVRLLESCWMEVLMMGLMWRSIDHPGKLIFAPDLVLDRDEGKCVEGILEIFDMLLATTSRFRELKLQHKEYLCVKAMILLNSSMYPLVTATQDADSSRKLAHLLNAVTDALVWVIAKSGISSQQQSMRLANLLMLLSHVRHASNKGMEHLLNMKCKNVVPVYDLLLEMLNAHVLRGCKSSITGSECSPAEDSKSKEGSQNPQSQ

Sequence of D(1A) dopamine receptor (P21728 whole entry): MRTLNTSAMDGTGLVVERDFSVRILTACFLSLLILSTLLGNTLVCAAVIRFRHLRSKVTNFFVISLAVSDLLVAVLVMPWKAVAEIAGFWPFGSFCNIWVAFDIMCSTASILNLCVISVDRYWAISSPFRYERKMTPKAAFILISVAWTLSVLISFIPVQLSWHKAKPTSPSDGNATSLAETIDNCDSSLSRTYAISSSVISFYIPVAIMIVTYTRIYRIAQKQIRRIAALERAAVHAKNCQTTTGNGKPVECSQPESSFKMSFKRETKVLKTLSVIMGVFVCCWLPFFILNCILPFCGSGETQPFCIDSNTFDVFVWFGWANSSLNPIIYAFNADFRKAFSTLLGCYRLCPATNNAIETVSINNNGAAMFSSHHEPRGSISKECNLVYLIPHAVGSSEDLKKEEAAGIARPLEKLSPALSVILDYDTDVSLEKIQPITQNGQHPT
Sequence of C-C chemokine receptor type 5 (P51681 whole entry): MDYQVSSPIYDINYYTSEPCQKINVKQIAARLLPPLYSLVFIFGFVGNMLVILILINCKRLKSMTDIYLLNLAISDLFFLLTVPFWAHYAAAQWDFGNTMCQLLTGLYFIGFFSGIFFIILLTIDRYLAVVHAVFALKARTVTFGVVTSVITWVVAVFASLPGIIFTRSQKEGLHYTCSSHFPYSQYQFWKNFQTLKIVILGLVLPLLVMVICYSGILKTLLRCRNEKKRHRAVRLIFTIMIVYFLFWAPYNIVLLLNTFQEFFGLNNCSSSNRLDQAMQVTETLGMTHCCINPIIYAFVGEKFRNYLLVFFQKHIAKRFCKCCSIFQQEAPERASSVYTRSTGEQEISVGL
Sequence of Cytochrome P450 2E1 (P05181 whole entry): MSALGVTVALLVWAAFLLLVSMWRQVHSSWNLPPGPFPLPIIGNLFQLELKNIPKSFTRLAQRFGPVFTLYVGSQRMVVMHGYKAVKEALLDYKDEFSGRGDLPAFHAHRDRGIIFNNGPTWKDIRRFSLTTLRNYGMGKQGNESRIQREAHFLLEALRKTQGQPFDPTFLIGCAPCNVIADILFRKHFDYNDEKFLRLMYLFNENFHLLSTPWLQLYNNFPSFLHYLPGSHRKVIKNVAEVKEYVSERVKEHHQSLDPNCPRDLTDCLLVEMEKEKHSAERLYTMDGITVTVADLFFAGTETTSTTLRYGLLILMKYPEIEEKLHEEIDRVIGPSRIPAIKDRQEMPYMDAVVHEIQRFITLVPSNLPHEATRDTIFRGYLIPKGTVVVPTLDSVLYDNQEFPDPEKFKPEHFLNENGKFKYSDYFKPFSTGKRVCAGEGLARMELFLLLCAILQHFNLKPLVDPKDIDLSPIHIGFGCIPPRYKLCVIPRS
Sequence of C-C chemokine receptor type 2 (P41597 whole entry): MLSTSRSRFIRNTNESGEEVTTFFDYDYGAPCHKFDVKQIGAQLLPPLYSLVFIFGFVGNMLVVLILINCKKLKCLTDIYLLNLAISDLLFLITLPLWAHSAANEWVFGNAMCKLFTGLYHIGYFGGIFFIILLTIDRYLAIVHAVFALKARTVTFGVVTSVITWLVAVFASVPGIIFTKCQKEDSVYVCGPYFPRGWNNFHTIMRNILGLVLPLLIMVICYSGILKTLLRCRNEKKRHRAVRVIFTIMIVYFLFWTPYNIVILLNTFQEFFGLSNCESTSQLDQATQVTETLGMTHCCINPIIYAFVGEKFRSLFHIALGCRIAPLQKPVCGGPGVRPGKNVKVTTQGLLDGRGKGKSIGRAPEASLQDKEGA
Sequence of Matrix metalloproteinase-9 (P14780 whole entry): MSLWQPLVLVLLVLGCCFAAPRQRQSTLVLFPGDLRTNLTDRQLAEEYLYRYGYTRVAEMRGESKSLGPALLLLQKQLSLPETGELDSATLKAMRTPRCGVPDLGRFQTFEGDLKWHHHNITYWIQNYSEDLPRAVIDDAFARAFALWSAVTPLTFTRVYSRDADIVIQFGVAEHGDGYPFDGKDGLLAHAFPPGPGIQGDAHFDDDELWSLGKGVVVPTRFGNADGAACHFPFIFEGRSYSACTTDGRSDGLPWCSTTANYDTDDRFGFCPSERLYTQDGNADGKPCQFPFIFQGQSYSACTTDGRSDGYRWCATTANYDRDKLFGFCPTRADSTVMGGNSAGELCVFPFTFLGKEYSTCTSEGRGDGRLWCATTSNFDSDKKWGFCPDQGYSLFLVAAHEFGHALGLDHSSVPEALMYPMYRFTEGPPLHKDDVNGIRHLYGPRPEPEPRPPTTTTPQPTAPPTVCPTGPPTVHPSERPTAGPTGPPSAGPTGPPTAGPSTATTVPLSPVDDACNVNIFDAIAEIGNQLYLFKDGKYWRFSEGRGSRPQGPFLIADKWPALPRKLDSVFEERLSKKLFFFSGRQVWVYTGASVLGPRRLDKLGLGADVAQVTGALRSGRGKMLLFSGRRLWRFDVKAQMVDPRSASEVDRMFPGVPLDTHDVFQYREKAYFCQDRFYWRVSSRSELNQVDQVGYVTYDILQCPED
Sequence of Sodium-dependent dopamine transporter (Q01959 whole entry): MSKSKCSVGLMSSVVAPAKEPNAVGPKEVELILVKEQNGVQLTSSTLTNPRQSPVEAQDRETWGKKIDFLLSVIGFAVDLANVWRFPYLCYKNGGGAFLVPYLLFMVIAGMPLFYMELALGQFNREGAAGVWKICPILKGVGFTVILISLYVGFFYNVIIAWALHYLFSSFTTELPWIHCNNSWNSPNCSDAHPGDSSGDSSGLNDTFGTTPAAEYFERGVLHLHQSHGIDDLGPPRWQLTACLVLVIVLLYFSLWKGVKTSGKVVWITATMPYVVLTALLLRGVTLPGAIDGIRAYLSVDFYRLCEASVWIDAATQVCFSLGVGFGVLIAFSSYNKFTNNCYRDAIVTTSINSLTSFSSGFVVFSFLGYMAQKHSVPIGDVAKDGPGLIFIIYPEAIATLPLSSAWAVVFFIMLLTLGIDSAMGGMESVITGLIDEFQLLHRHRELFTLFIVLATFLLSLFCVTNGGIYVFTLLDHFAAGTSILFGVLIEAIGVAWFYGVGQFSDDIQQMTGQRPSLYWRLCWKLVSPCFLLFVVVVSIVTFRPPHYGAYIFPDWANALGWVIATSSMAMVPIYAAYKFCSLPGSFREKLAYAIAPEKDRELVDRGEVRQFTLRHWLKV
Sequence of 5-hydroxytryptamine receptor 4 (O70528 whole entry): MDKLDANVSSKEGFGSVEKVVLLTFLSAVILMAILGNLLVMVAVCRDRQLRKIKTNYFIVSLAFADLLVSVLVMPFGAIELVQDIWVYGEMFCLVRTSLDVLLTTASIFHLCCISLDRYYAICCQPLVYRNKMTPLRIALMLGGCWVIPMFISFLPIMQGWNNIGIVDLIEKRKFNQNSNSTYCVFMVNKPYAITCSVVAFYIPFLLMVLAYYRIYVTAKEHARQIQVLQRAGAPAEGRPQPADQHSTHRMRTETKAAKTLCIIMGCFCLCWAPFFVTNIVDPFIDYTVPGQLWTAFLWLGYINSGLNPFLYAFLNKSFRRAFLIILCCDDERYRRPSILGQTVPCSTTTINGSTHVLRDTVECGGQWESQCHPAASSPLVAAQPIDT

COc1ccc2cc(CC(=O)O)ccc2c1
Not Active: IC50 (B2 bradykinin receptor) | IC50 [1] | Ki [1] | IC50 [2] | IC50 [3] | IC50 [4] | IC50 (D(1A) dopamine receptor) | IC50 [5] | IC50 [6] | Ki [6] | IC50 [7] | IC50 [8] | IC50 [9] | IC50 (Cytochrome P450 2E1) | Ki (Cytochrome P450 2E1) | IC50 (Estrogen receptor beta)

CC(C)NC[C@H](O)COc1cccc2[nH]ccc12
Not Active: IC50 (B2 bradykinin receptor) | IC50 [1] | Ki [1] | IC50 [2] | IC50 [3] | IC50 [4] | IC50 (D(1A) dopamine receptor) | IC50 [5] | IC50 [6] | Ki [6] | IC50 [7] | IC50 [8] | IC50 [9] | IC50 (Estrogen receptor beta)

c1ccc2c(c1)cc1ccc3cccc4ccc2c1c34
Not Active: IC50 (B2 bradykinin receptor) | IC50 [1] | Ki [1] | IC50 [2] | IC50 [3] | IC50 [4] | IC50 (D(1A) dopamine receptor) | IC50 [5] | IC50 [6] | Ki [6] | IC50 [7] | IC50 [8] | IC50 [9] | IC50 (Cytochrome P450 2E1) | Ki (Cytochrome P450 2E1) | IC50 (Estrogen receptor beta)

C=C1C(=O)O[C@@H]2C3O[C@]3(C)CC/C=C(\C)CC[C@@H]12 (stereo partly specified)
Not Active: IC50 (B2 bradykinin receptor) | IC50 [1] | Ki [1] | IC50 [2] | IC50 [3] | IC50 [4] | IC50 (D(1A) dopamine receptor) | IC50 [5] | IC50 [6] | Ki [6] | IC50 [7] | IC50 [8] | IC50 [9] | IC50 (Cytochrome P450 2E1) | Ki (Cytochrome P450 2E1) | IC50 (Estrogen receptor beta)

CC(/C=C1\SC(=S)N(CC(=O)O)C1=O)=C\c1ccccc1
Not Active: IC50 (B2 bradykinin receptor) | IC50 [1] | Ki [1] | IC50 [2] | IC50 [3] | IC50 [4] | IC50 (D(1A) dopamine receptor) | IC50 [5] | IC50 [6] | Ki [6] | IC50 [7] | IC50 [8] | IC50 [9] | IC50 (Cytochrome P450 2E1) | Ki (Cytochrome P450 2E1) | IC50 (Estrogen receptor beta)

O=C1OCCN1/N=C/c1ccc([N+](=O)[O-])o1 [FURAZOLIDONE]
Not Active: IC50 (B2 bradykinin receptor) | IC50 [1] | Ki [1] | IC50 [2] | IC50 [3] | IC50 [4] | IC50 (D(1A) dopamine receptor) | IC50 [5] | IC50 [6] | Ki [6] | IC50 [7] | IC50 [8] | IC50 [9] | IC50 (Estrogen receptor beta)

NCC(=O)O [GLYCINE]
Not Active: IC50 (B2 bradykinin receptor) | IC50 [1] | Ki [1] | IC50 [2] | IC50 [3] | IC50 [4] | IC50 (D(1A) dopamine receptor) | IC50 [5] | IC50 [6] | Ki [6] | IC50 [7] | IC50 [8] | IC50 [9] | IC50 (Estrogen receptor beta)

Reference: ChEMBL document CHEMBL1909046, “DrugMatrix in vitro pharmacology data”
